Legend:
Format in all cases: cell-based, human
[1] = tested on: HLA-A2402-restricted KE4-CTLs; assay: IFN-γ production by KE4-CTLs stimulated with peptide-pulsed ClR/A2402 cells (ELISA); conditions: ClR/A2402 cells pulsed with 10 μM peptide for 2 h, KE4-CTLs 18 h
Method: In order to specify the tumor antigen peptide capable of binding to the HLA-A24 molecule, which is derived from Lck, thirteen different peptides were synthesized and loaded onto ClR/A2402 so as to test the ability of enhancing the IFN-γ production by KE4-CTLs.
In order to specify the tumor antigen, ClR/A2402 (2×10^4) cells transfected with HLA-A2402 were pulsed with a peptide at a final concentration of 10 μM for 2 h. KE4-CTLs (1×10^4) were then added, and incubated for 18 h. 100 μl of the supernatant was collected to measure IFN-γ by ELISA.
On the other hand, the activity of Lck208-216 (SEQ ID NO:3) was detected at 100 nM or higher (FIG. 4).

GK-CTL subline (2-2-4) = assay: IFN-γ production by HLA-A2-restricted GK-CTL subline (2-2-4) with peptide-pulsed VA13 cells; conditions: VA13 cells transfected with HLA-A2, pulsed with 10 μM peptide 2 h
Method: (§1) In order to specify an HLA-A2 molecule-binding tumor antigen peptide derived from Lck, 24 different peptides were synthesized to introduce into VA 13 (HLA-A02), and an ability of enhancing INF-γ production by OK-CTL or GK-CTL subline (2-2-4) was tested in a manner similar to one used in Example 3.
(§2) In order to specify the tumor antigen peptide, 2×10^4 of VA13 cells transfected with HLA-A2 were pulsed with the peptide at a final concentration of 10 μM for 2 h. 1×10^4 of KE4-CTLs were then added and incubated for 18 h. 100 μl of the supernatant was collected to measure IFN-γ by ELISA.

OK-CTL = assay: IFN-γ production by HLA-A2-restricted OK-CTL with peptide-pulsed VA13 cells; conditions: for enhancement of IFN-γ production by OK-CTL: VA13 cells transfected with HLA-A2, pulsed with 10 μM peptide 2 h
Method: as §1, §2

KE4-CTL = assay: Activation of KE4-CTLs by Src family peptides incubated with SW620 cells (IFN-γ); conditions: 10 μg/ml peptide, SW620 target cells
Method: Based on these amino acid sequences of the peptides derived from Src family, Src511-519 (SEQ ID NO:4) (TFEYLQAFL), Yes508-516 (SEQ ID NO:5) (TFEYIQSFL), Fyn512-520 (SEQ ID NO:6) (TFEYLQSFL), Lyn489-497 (SEQ ID NO:7) (TFDYLQSVL), Hck503-511 (SEQ ID NO:8) (TFEYIQSVL), and Blk482-490 (SEQ ID NO:9) (TFEFLQSVL) were synthesized, and 10 μg/ml of each peptide was incubated with SW620 cells used as target cells, and then KE4-CTL cells used in Examples 1 and 2 were added and then cultured to assay a CTL-inducing activity using the amount of IFN-γ produced in the culture supernatant as the indicator. In addition, KE4 as a positive control was used for the target cell. Other methods were similar to those used in Example 4.

Sequence: AFIEERNYI [Lck353-361]
- activity of enhancing the IFN-γ production in CTLs [1]: had an activity of enhancing the IFN-γ production in CTLs

Sequence: EYMENGSLV [Lck3l7-325]
- activity of enhancing the IFN-γ production in CTLs [1]: had an activity of enhancing the IFN-γ production in CTLs

Sequence: KLLDMAAQI (listed as Homo sapiens) [Lck340-348]
- enhancement of IFN-γ production by GK-CTL subline (2-2-4) (GK-CTL subline (2-2-4)): enhanced the production of IFN-γ
- enhancement of IFN-γ production by OK-CTL (OK-CTL): enhanced the production of IFN-γ

Sequence: LQDNLVIAL (listed as Homo sapiens) [Lck61-69]
- enhancement of IFN-γ production by GK-CTL subline (2-2-4) (GK-CTL subline (2-2-4)): enhanced the production of IFN-γ
- activation of CTL subline at various peptide concentrations (OK-CTL; OK-CTL subline): in a dose-dependent manner
- enhancement of IFN-γ production by OK-CTL (OK-CTL): enhanced the production of IFN-γ

Sequence: QIAEGMAFI (listed as Homo sapiens) [Lck347-355]
- enhancement of IFN-γ production by GK-CTL subline (2-2-4) (GK-CTL subline (2-2-4)): enhanced the production of IFN-γ
- enhancement of IFN-γ production by OK-CTL (OK-CTL): enhanced the production of IFN-γ

Sequence: QLQHQRLVRL (listed as Homo sapiens) [Lck294-303]
- enhancement of IFN-γ production by GK-CTL subline (2-2-4) (GK-CTL subline (2-2-4)): enhanced the production of IFN-γ
- enhancement of IFN-γ production by OK-CTL (OK-CTL): enhanced the production of IFN-γ

Sequence: SVLEDFFTA (listed as Homo sapiens) [Lck492-500]
- enhancement of IFN-γ production by GK-CTL subline (2-2-4) (GK-CTL subline (2-2-4)): enhanced the production of IFN-γ
- enhancement of IFN-γ production by OK-CTL (OK-CTL): enhanced the production of IFN-γ

Sequence: SYEPSHDGDL [Lck7l-80]
- activity of enhancing the IFN-γ production in CTLs [1]: had an activity of enhancing the IFN-γ production in CTLs

Sequence: TFEFLQSVL (listed as Homo sapiens) [Blk482-490]
- ability to activate HLA-A24-restricted CTL relative to peptide derived from Lck (KE4-CTL): comparable to a peptide derived from Lck or more

Sequence: TFEYIQSFL (listed as Homo sapiens) [Yes508-516]
- ability to activate HLA-A24-restricted CTL relative to peptide derived from Lck (KE4-CTL): comparable to a peptide derived from Lck or more

Sequence: TFEYIQSVL (listed as Homo sapiens) [Hck503-511]
- ability to activate HLA-A24-restricted CTL relative to peptide derived from Lck (KE4-CTL): comparable to a peptide derived from Lck or more

Sequence: TFEYLQAFL (listed as Homo sapiens) [Src511-519]
- ability to activate HLA-A24-restricted CTL relative to peptide derived from Lck (KE4-CTL): comparable to a peptide derived from Lck or more

Sequence: TFEYLQSFL (listed as Homo sapiens) [Fyn512-520]
- ability to activate HLA-A24-restricted CTL relative to peptide derived from Lck (KE4-CTL): comparable to a peptide derived from Lck or more

— US7465452B2, “Tumor antigen” (Green Peptide Co., Ltd., priority 1999, dated 2008)
